Laboratory results published in publication PMC9610943, “Truncated Pleurocidin Derivative with High Pepsin Hydrolysis Resistance to Combat Multidrug-Resistant Pathogens” (Pharmaceutics, 2022).
Where no end group is shown, it is not given here.

Legend:
MRSA 1530 = experiment: microbe, parasite or virus in culture; assay type: cell-based, Staphylococcus aureus; settings: 1530
Description: (§1) S. aureus ATCC 29213, E. coli ATCC 25922, S. enteritidis ATCC 13076 and A. baumannii ATCC 19609 were obtained from the American Type Culture Collection (ATCC). The remaining strains used in the experiment were all preserved strains in our laboratory. All strains were cultured in nutrient broth overnight to the logarithmic phase at 37 °C prior to each experiment.
(§2) The MICs of all drugs were determined by micro-broth dilution method according to CLSI 2018 guidelines. Briefly, a single colony of the bacterial strain was transferred to 1 mL of Mueller Hilton broth (MHB) and overnight at 37 °C and then 10 μL were cultured in a new 1 mL medium for 4 to 6 h, and then the bacterial culture at the logarithmic phase was diluted to 1 × 10^6 CFUs/mL. The assay was performed by adding 100 μL of each peptide solution at various concentrations (0.25 to 128 μg/mL) and 100 μL of diluted bacterial culture to different wells of a 96-well microtiter plate (Corning, NY, USA). After incubation at 37 °C for 16 to 18 h and then read its MIC value. MIC value is defined as the lowest drug concentration without visible bacteria.

MRSA T144 [1] = experiment: microbe, parasite or virus in culture; assay type: cell-based, Staphylococcus aureus; settings: T144
Description: as §1, §2

A. baumannii ATCC 19609 = experiment: microbe, parasite or virus in culture; assay type: cell-based; settings: ATCC 19609
Description: as §1, §2

E. coli 1F28 (tet(X4)) = experiment: microbe, parasite or virus in culture; assay type: cell-based; settings: 1F28 (tet(X4))
Description: as §1, §2

E. coli ATCC 25922 = experiment: microbe, parasite or virus in culture; assay type: cell-based; settings: ATCC 25922
Description: as §1, §2

[2] = tested on: E. coli B2 (blaNDM-5 + mcr-1); experiment: microbe, parasite or virus in culture; assay type: cell-based; settings: B2 (blaNDM-5 + mcr-1)
Description: as §1, §2

E. coli B3-1 (tet(X4)) = experiment: microbe, parasite or virus in culture; assay type: cell-based; settings: B3-1 (tet(X4))
Description: as §1, §2

E. coli C3 (blaNDM-1) = experiment: microbe, parasite or virus in culture; assay type: cell-based; settings: C3 (blaNDM-1)
Description: as §1, §2

E. coli CP131 (mcr-3) = experiment: microbe, parasite or virus in culture; assay type: cell-based; settings: CP131 (mcr-3)
Description: as §1, §2

E. coli G6 (blaNDM-5) = experiment: microbe, parasite or virus in culture; assay type: cell-based; settings: G6 (blaNDM-5)
Description: as §1, §2

E. coli G92 (mcr-1) = experiment: microbe, parasite or virus in culture; assay type: cell-based; settings: G92 (mcr-1)
Description: as §1, §2

[3] = tested on: E. faecalis A4 (VRE, VanA); experiment: microbe, parasite or virus in culture; assay type: cell-based; settings: A4 (VRE, VanA)
Description: as §1, §2

[4] = tested on: P. aeruginosa (VIM + tmexCD1-torJ1); experiment: microbe, parasite or virus in culture; assay type: cell-based; settings: VIM + tmexCD1-torJ1
Description: as §1, §2

P. aeruginosa PA14 = experiment: microbe, parasite or virus in culture; assay type: cell-based; settings: PA14
Description: as §1, §2

[5] = tested on: S. aureus 215 (cfr + LZD^R); experiment: microbe, parasite or virus in culture; assay type: cell-based; settings: S. aureus 215 (cfr + LZD^R); micro-broth dilution CLSI 2018, MHB, 37 °C, 16 to 18 h
Description: as §1, §2

S. aureus ATCC 29213 = experiment: microbe, parasite or virus in culture; assay type: cell-based; settings: ATCC 29213
Description: as §1, §2

S. aureus G16 (RIF^R) = experiment: microbe, parasite or virus in culture; assay type: cell-based; settings: S. aureus G16 (RIF^R); micro-broth dilution CLSI 2018, MHB, 37 °C, 16 to 18 h
Description: as §1, §2

[6] = tested on: S. enteritidis ATCC 13076; experiment: microbe, parasite or virus in culture; assay type: cell-based; settings: ATCC 13076
Description: as §1, §2

[7] = tested on: P. cibarius HNCF44W (blaNDM-1+ tet(X6)); experiment: organism not typed; assay type: cell-based
Description: as §1, §2

MRSA T144 [8] = assay type: cell-based, Staphylococcus aureus
Description: as §2
(§3) Then, the antibacterial activity of the peptides affected by different temperatures and pH were determined according to the determination steps of MICs test.
(§4) In MHB medium, Na^+, K^+, Mg^2+ and Ca^2+ with the final concentrations of 10 mM, fetal bovine serum, plasma or DMEM medium (Hyclone, Logan, UT, USA) with the final concentrations of 10% was added, and then MIC values were measured to evaluate the effects of different cations, serum and plasma on the antibacterial activity of peptides.
(§5) The peptide was incubated with protease (pepsin, trypsin and papain) (Solarbio, Beijing, China) with a final concentration of 1 mg/mL at 37 °C for 1 h, then the mixture of peptide and protease was heated at 100 °C for 30 min, then centrifuged at 13,000× g for 30 min, and the supernatant was taken for MIC determination.

E. coli B2 = assay type: cell-based
Description: as §2, §3, §4, §5

Question: Which results are given for GWKSFFKKWKHVWK [GK-2]?
Answer: MIC (MRSA 1530): 32 µg/mL; MIC (MRSA T144 [1]): 8 µg/mL; MIC (A. baumannii ATCC 19609): 8 µg/mL; MIC (E. coli 1F28 (tet(X4))): 16 µg/mL; MIC (E. coli ATCC 25922): 8 µg/mL; MIC [2]: 2 µg/mL; MIC (E. coli B3-1 (tet(X4))): 4 µg/mL; MIC (E. coli C3 (blaNDM-1)): 2 µg/mL; MIC (E. coli CP131 (mcr-3)): 2 µg/mL; MIC (E. coli G6 (blaNDM-5)): 2 µg/mL; MIC (E. coli G92 (mcr-1)): 2 µg/mL; MIC [3]: 16 µg/mL; MIC [4]: 16 µg/mL; MIC (P. aeruginosa PA14): 16 µg/mL; MIC [5]: 4 µg/mL; MIC (S. aureus ATCC 29213): 4 µg/mL; MIC (S. aureus G16 (RIF^R)): 8 µg/mL; MIC [6]: 4 µg/mL; MIC [7]: 8 µg/mL; MIC after treatment at 121 °C (MRSA T144 [8]; T144): 4 µg/mL; MIC in DMEM (10%) (MRSA T144 [8]; T144): 4 µg/mL; MIC in Plasma (10%) (MRSA T144 [8]; T144): 4 µg/mL; MIC in Serum (10%) (MRSA T144 [8]; T144): 8 µg/mL; MIC in presence of Ca^2+ (MRSA T144 [8]; T144): >128 µg/mL; MIC in presence of K^+ (MRSA T144 [8]; T144): 4 µg/mL; MIC in presence of Mg^2+ (MRSA T144 [8]; T144): 4 µg/mL; MIC in presence of Na^+ (MRSA T144 [8]; T144): 2 µg/mL; MIC, Control (MRSA T144 [8]; T144): 8 µg/mL; MIC after Papain treatment (MRSA T144 [8]; T144, 1 h): >128 µg/mL; MIC after Pepsin treatment (MRSA T144 [8]; T144, 1 h): 64 µg/mL; MIC after Trypsin treatment (MRSA T144 [8]; T144, 1 h): >128 µg/mL; MIC after treatment at 40 °C (MRSA T144 [8]; T144, 1 h): 2 µg/mL; MIC after treatment at 60 °C (MRSA T144 [8]; T144, 1 h): 4 µg/mL; MIC after treatment at 80 °C (MRSA T144 [8]; T144, 1 h): 2 µg/mL; MIC after treatment at 100 °C (MRSA T144 [8]; T144, 1 h): 4 µg/mL; MIC after treatment at pH 2 (MRSA T144 [8]; T144, 1 h, pH 2): 4 µg/mL; MIC after treatment at pH 4 (MRSA T144 [8]; T144, 1 h, pH 4): 4 µg/mL; MIC after treatment at pH 6 (MRSA T144 [8]; T144, 1 h, pH 6): 4 µg/mL; MIC after treatment at pH 8 (MRSA T144 [8]; T144, 1 h, pH 8): 4 µg/mL; MIC after treatment at pH 10 (MRSA T144 [8]; T144, 1 h, pH 10): 4 µg/mL; MIC after treatment at pH 12 (MRSA T144 [8]; T144, 1 h, pH 12): 4 µg/mL; MIC after treatment at 121 °C (E. coli B2; B2): 2 µg/mL; MIC in DMEM (10%) (E. coli B2; B2): 4 µg/mL; MIC in Plasma (10%) (E. coli B2; B2): 0.5 µg/mL; MIC in Serum (10%) (E. coli B2; B2): 4 µg/mL; MIC in presence of Ca^2+ (E. coli B2; B2): >128 µg/mL; MIC in presence of K^+ (E. coli B2; B2): 2 µg/mL; MIC in presence of Mg^2+ (E. coli B2; B2): 32 µg/mL; MIC in presence of Na^+ (E. coli B2; B2): 2 µg/mL; MIC, Control (E. coli B2; B2): 2 µg/mL; MIC after Papain treatment (E. coli B2; B2, 1 h): >128 µg/mL; MIC after Pepsin treatment (E. coli B2; B2, 1 h): 128 µg/mL; MIC after Trypsin treatment (E. coli B2; B2, 1 h): >128 µg/mL; MIC after treatment at 40 °C (E. coli B2; B2, 1 h): 2 µg/mL; MIC after treatment at 60 °C (E. coli B2; B2, 1 h): 4 µg/mL; MIC after treatment at 80 °C (E. coli B2; B2, 1 h): 2 µg/mL; MIC after treatment at 100 °C (E. coli B2; B2, 1 h): 2 µg/mL; MIC after treatment at pH 2 (E. coli B2; B2, 1 h, pH 2): 2 µg/mL; MIC after treatment at pH 4 (E. coli B2; B2, 1 h, pH 4): 4 µg/mL; MIC after treatment at pH 6 (E. coli B2; B2, 1 h, pH 6): 2 µg/mL; MIC after treatment at pH 8 (E. coli B2; B2, 1 h, pH 8): 2 µg/mL; MIC after treatment at pH 10 (E. coli B2; B2, 1 h, pH 10): 2 µg/mL; MIC after treatment at pH 12 (E. coli B2; B2, 1 h, pH 12): 2 µg/mL
